Measurements published in patent US9029370B2, “Substituted benzamide derivatives” (Hoffmann-La Roche Inc., priority 2011, dated 2015).
Structures can show the parent of a compound that is named as a salt.

Legend:
mouse TAAR1 = mouse TAAR1 (Mus musculus (Mouse), UniProt Q923Y8); assay: Radioligand binding assay on mouse TAAR1; settings: for Ki: mouse TAAR1, HEK-293 membranes, first value of the pair (before the slash), read-out: Ki (μM) mouse/rat
Procedure, shortened: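 Membranes from HEK293 cells stably expressing mouse TAAR1, in HEPES-NaOH pH 7.4 with 0.1 mM EDTA, were incubated 1 h at 4°C with tritiated (S)-4-[(ethyl-phenyl-amino)-methyl]-4,5-dihydro-oxazol-2-ylamine and compound (10 pM–10 μM, duplicates). Nonspecific binding defined with 10 μM unlabeled ligand; bound radioactivity by filtration and scintillation counting.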

rat TAAR1 = rat TAAR1 (Rattus norvegicus (Rat), UniProt Q923Y9); assay: Radioligand binding assay on rat TAAR1; settings: for Ki: rat TAAR1, HEK-293 membranes, second value of the pair (line below), read-out: Ki (μM) mouse/rat
Chain of rat TAAR1 (Q923Y9 whole entry): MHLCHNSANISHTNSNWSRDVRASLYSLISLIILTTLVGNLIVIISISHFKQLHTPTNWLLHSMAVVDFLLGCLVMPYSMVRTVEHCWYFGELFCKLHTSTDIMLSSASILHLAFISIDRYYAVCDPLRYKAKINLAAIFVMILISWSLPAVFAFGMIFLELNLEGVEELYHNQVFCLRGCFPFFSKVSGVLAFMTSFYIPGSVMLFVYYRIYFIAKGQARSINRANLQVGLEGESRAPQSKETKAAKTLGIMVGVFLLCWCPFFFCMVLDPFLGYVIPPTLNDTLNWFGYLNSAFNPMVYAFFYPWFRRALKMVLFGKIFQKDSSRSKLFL
Procedure, shortened: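 Membranes from HEK293 cells stably expressing rat TAAR1 were incubated 1 hr at 4 °C with ^3[H]-(S)-4-[(ethyl-phenyl-amino)-methyl]-4,5-dihydro-oxazol-2-ylamine; nonspecific binding was defined with 10 μM unlabeled ligand. Compounds were tested at 10 pM to 10 μM in duplicate. Bound radioactivity was read by filtration and scintillation counting.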

Chain of mouse TAAR1 (Q923Y8 whole entry): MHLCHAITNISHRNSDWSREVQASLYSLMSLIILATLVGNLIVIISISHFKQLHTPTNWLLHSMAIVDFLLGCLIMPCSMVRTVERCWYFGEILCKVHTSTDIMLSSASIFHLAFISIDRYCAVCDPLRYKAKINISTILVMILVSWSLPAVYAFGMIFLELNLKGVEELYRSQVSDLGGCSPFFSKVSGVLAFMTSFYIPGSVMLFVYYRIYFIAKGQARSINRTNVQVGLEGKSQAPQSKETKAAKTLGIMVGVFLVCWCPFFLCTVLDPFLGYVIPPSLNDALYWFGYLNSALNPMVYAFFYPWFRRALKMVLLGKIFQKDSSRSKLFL

| Kd (mouse TAAR1; mouse TAAR1 membranes, saturation curve, usual value, read-out: dissociation constant (Kd) of the radioligand) [nM] | Kd (rat TAAR1; rat TAAR1 membranes, saturation curve, usual value, read-out: dissociation constant (Kd) of the radioligand) [nM] | Compound | Ki (mouse TAAR1) [µM] | Ki (rat TAAR1) [µM] |
| --- | --- | --- | --- | --- |
| – | – | Cc1nc(C(=O)Nc2ccc([C@H]3CNCCO3)cc2F)ccc1C#N [Example 135, (S)-5-Cyano-N-(2-fluoro-4-(morpholin-2-yl)phenyl)-6-methylpicolinamide hydrochloride] | 0.0105 | 0.578 |
| – | – | Cc1nc(C(=O)Nc2ccc([C@H]3CNCCO3)c(F)c2)ccc1C#N [Example 136, (S)-5-Cyano-N-(3-fluoro-4-(morpholin-2-yl)phenyl)-6-methylpicolinamide hydrochloride] | 0.0075 | 0.0585 |
| – | – | O=C(Nc1ccc([C@H]2CNCCO2)c(F)c1)c1cnc(C(F)(F)F)cn1 [Example 137, (S)—N-(3-Fluoro-4-(morpholin-2-yl)phenyl)-5-(trifluoromethyl)pyrazine-2-carboxamide hydrochloride] | 0.0067 | 0.0301 |
| – | – | CCOc1ccc(C(=O)Nc2ccc([C@H]3CNCCO3)cc2F)cn1 [Example 138, (S)-6-Ethoxy-N-(2-fluoro-4-(morpholin-2-yl)phenyl)nicotinamide] | 0.0042 | 0.308 |
| ~0.7 | ~2.3 | CCN(C[C@H]1COC(N)=N1)c1ccccc1 [^3[H]-(S)-4-[(ethyl-phenyl-amino)-methyl]-4,5-dihydro-oxazol-2-ylamine, reference compound] | – | – |
